Laboratory results: patent publication US8124623B2, “5-hydroxymethyl-oxazolidin-2-one-derivatives and their uses as antibacterials” (Actelion Pharmaceuticals Ltd., priority 2006, dated 2012)
≈ marks a conversion by molar mass, not a printed value.

Experiments:
[1] = tested on: Lactobacillus acidophilus A-1255 DSM 20079; experiment: MIC, particular anaerobic bacterial strains; assay type: cell-based
[2] = tested on: C. difficile strain NC13366; assay type: cell-based; conditions: 1 and 8 μg/mL, day 5 vs day 1, high density stationary phase cultures
[3] = tested on: Eubacterium limosum A-1259 DSM 20698; experiment: MIC, particular anaerobic bacterial strains; assay type: cell-based
[4] = tested on: C. difficile strain NC13366; assay type: cell-based; conditions: treated cultures compared to the untreated control, day 5
[5] = tested on: Bacteroides thetaiotaomicron A-990 ATCC 29741; experiment: microbe, parasite or virus in culture; assay type: cell-based; conditions: ATCC29741
[6] = tested on: Lactococcus lactis A-1256 DSM 20069; experiment: MIC, particular anaerobic bacterial strains; assay type: cell-based
[7] = tested on: Bacteroides fragilis A-992 ATCC 25285; experiment: MIC, particular anaerobic bacterial strains; assay type: cell-based; conditions: ATCC25285
[8] = tested on: toxigenic C. difficile strain 10465; experiment: C. difficile hamster model; assay type: in vivo, Golden Syrian hamsters
Description: Golden Syrian hamsters were given a single injection of clindamycin phosphate (10 mg/kg s.c.), and a day later animals were infected by gavage with 10^5 CFU of toxigenic C. difficile strain 10465. A fulminant colitis results in the majority (˜95%) of animals and develops 1 to 2 days after the administration of C. difficile. Untreated, the colitis progresses rapidly and turns into severe colitis, hemorrhagic necrosis of the cecum and death. The compound of Example 1 was administered orally as a suspension at three dosage levels (10 mg/kg, 30 mg/kg and 100 mg/kg; n=10 per group). Vancomycin (50 mg/kg) was used as a control. Animals were treated once daily for 5 days and afterwards maintain under observation for an additional 21 days.
The animals were observed three times daily for morbidity and presence or absence of diarrhoea. The final endpoint of the study was survival. Animals judged to be in a moribund state [extended period of weight loss progressing to an emaciated state, anorexia for 24-48 h, prolonged lethargy (more than 3 days), signs of paralysis, skin erosions or trauma, hunched posture, distended abdomen] were euthanized by a single injection of sodium pentobarbital.

[9] = tested on: Finegoldia magna A-1254 DSM 20470; experiment: MIC, particular anaerobic bacterial strains; assay type: cell-based
[10] = 10 mg/kg orally once daily for 5 days
[11] = 30 mg/kg orally once daily for 5 days

In the case of `O=C(O)c1cn(C2CC2)c2cc(N3CCC(O)(COc4ccc(N5C[C@H](CO)OC5=O)cc4F)CC3)c(F)cc2c1=O` [Example 1, 1-cyclopropyl-6-fluoro-7-{4-[2-fluoro-4-((R)-5-hydroxymethyl-2-oxo-oxazolidin-3-yl)-phenoxymethyl]-4-hydroxy-piperidin-1-yl}-4-oxo-1,4-dihydro-quinoline-3-carboxylic acid], the “less activity than compound of Example 5 of WO 2005/058888 (R1)” value (from here on “less activity than compound”) [1] is reported as 8 times, the “de novo toxin A production in supernatants” value [2] is reported as “inhibited de novo toxin A production” and the “less activity than compound” value [3] is reported as 4 times. The “reduction of toxin B activity of culture supernatants” value [4] was greater than 90%, the MIC [5] was 8 µg/mL (≈ 13.7 µM) and the “less activity than compound” value [6] was 8 times. The MIC [7] was 8 µg/mL (≈ 13.7 µM), the “animals surviving the 5 day treatment period” value [8, 10] was “all animals” and the “animals surviving the relapse phase of 21 days after treatment” value [8, 10] was 40%. The “animals surviving the 5 day treatment period” value [8, 11] was “all animals”, the “animals surviving the relapse phase of 21 days after treatment without relapse” value [8, 11] was 80% and the “animals surviving the 5 day treatment period” value ([8]; 100 mg/kg orally once daily for 5 days) was “all animals”. For the same molecule, the “less activity than compound” value [9] was 4 times.
